Source: patent US8618095B2 (Rigel Pharmaceuticals, Inc., priority 2010, dated 2013)
Where a name gives a salt, the structure may show the parent alone.

These compounds were tested on Human mast cells (CHMC) (assay: LD Tryptase release assay in CHMC (mast cell activation induced by FcγR cross-linking)). Conditions: Homo sapiens, Mast cell, anti-IgG stimulation, activity of tryptase released upon degranulation.
Format: cell-based
Outline: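 Mast cells derived from CD38-negative progenitors were preincubated 1 h at 37 °C with compound in HEPES-buffered saline (pH 7.4, 0.1% BSA, compound diluted in buffer with 2% MeOH/1% DMSO). Cells were then stimulated 60 min with anti-human IgG (final 1 μg/mL). Released tryptase was measured on Z-Ala-Lys-Arg-AMC (30 min, room temperature, 355/460 nm) to give the IC50.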

Row | Structure (SMILES) | IC50 [nM]
1 | COc1cc(Nc2ncc(F)c(Nc3ccc4c(n3)NC(=O)C(C)(C)O4)n2)ccc1N1CCOCC1 [Compound 27, N4-(2,2-dimethyl-3,4-dihydro-3-oxo-2H-pyrido[3,2-b][1,4]oxazin-6-yl)-5-fluoro-N2-[3-methoxy-4-morpholinophenyl]-2,4-pyrimidinediamine] | < 100
2 | COc1cc(Nc2ncc(F)c(Nc3ccc4c(n3)NC(=O)C(C)(C)O4)n2)cnc1N1CCOCC1 [Compound 21, N4-(2,2-dimethyl-3,4-dihydro-3-oxo-2H-pyrido[3,2-b][1,4]oxazin-6-yl)-5-fluoro-N2-[5-methoxy-6-morpholinopyridin-3-yl]-2,4-pyrimidinediamine] | 100 to 500
3 | C[C@H]1CN(c2ccc(Nc3ncc(F)c(Nc4ccc5c(n4)NC(=O)CO5)n3)cn2)CCO1 [Compound 93, N4-(3,4-dihydro-3-oxo-2H-pyrido[3,2-b][1,4]oxazin-6-yl)-5-fluoro-N2-[6-((2S)-2-methylmorpholino)pyridin-3-yl]-2,4-pyrimidinediamine] | 100 to 500
4 | CC1(C)Oc2ccc(Nc3nc(Nc4ccc5nc(-c6ccncc6)[nH]c5c4)ncc3F)nc2NC1=O [Compound 132, N4-(2,2-dimethyl-3,4-dihydro-3-oxo-2H-pyrido[3,2-b][1,4]oxazin-6-yl)-5-fluoro-N2-[2-(pyridin-4-yl)-1H-benzo[d]imidazol-6-yl]-2,4-pyrimidinediamine] | < 100
5 | Cc1cc(Nc2ncc(F)c(Nc3ccc4c(n3)NC(=O)C(C)(C)O4)n2)ccc1N1CCC2(CCOC2)CC1 [Compound 159, N4-(2,2-dimethyl-3,4-dihydro-3-oxo-2H-pyrido[3,2-b][1,4]oxazin-6-yl)-5-fluoro-N2-[3-methyl-4-(2-oxa-8-azaspiro[4.5]decan-8-yl)phenyl]-2,4-pyrimidinediamine] | 500 to 1000
6 | CCOC[C@H]1CN(c2ccc(Nc3ncc(F)c(Nc4ccc5c(n4)NC(=O)C(C)(C)O5)n3)cn2)CCO1 [Compound 103, N4-(2,2-dimethyl-3,4-dihydro-3-oxo-2H-pyrido[3,2-b][1,4]oxazin-6-yl)-N2-[6-(((2R)-2-ethoxymethyl)morpholino)pyridin-3-yl]-5-fluoro-2,4-pyrimidinediamine] | 100 to 500
7 | C[C@H]1CN(c2ccc(Nc3ncc(F)c(Nc4ccc5c(n4)NC(=O)C(C)(C)O5)n3)cn2)CCO1 [Compound 94, N4-(2,2-dimethyl-3,4-dihydro-3-oxo-2H-pyrido[3,2-b][1,4]oxazin-6-yl)-5-fluoro-N2-[6-((2S)-2-methylmorpholino)pyridin-3-yl]-2,4-pyrimidinediamine] | 100 to 500
8 | CC1(C)Oc2ccc(Nc3nc(Nc4ccc5ccncc5c4)ncc3F)nc2NC1=O [Compound 133, N4-(2,2-dimethyl-3,4-dihydro-3-oxo-2H-pyrido[3,2-b][1,4]oxazin-6-yl)-5-fluoro-N2-(isoquinolin-7-yl)-2,4-pyrimidinediamine] | < 100
9 | CN(c1ccc(Nc2ncc(F)c(Nc3ccc4c(n3)NC(=O)C(C)(C)O4)n2)cn1)C1CCOCC1 [Compound 143, N4-(2,2-dimethyl-3,4-dihydro-3-oxo-2H-pyrido[3,2-b][1,4]oxazin-6-yl)-5-fluoro-N2-[6-(methyl(tetrahydro-2H-pyran-4-yl)amino)pyridin-3-yl]-2,4-pyrimidinediamine] | < 100
10 | C[C@@H]1COCCN1c1ccc(Nc2ncc(F)c(Nc3ccc4c(n3)NC(=O)C(C)(C)O4)n2)cn1 [Compound 50, N4-(2,2-dimethyl-3,4-dihydro-3-oxo-2H-pyrido[3,2-b][1,4]oxazin-6-yl)-5-fluoro-N2-[6-((3R)-3-methylmorpholino)pyridin-3-yl]-2,4-pyrimidinediamine] | < 100

Same assay, conditions: anti-IgG stimulation, activity of tryptase released upon degranulation

Row | Structure (SMILES) | IC50 [nM]
11 | CC1(C)Oc2ccc(Nc3nc(Nc4ccc(N5CCOCC5)nc4)ncc3F)nc2NC1=O [Compound 140, N4-(2,2-dimethyl-3,4-dihydro-3-oxo-2H-pyrido[3,2-b][1,4]oxazin-6-yl)-5-fluoro-N2-[6-morpholinopyridin-3-yl]-2,4-pyrimidinediamine hydrochloric acid salt] | 500 to 1000
